This is an account of results in patent US20170021014A1, “VACCINE ADJUVANTS FOR CYTOMEGALOVIRUS PREVENTION AND TREATMENT” (THE JOHNS HOPKINS UNIVERSITY, priority 2015, published 2017).

SMILES strings stand for the structures.

One series concerns HCMV TB40. The series can be described thus: Plaque reduction assay in HFFs, HCMV TB40. The class given is cell-based, human cytomegalovirus. The conditions noted are these: MDP 10 μg/mL pretreatment 72 h, 100 PFU/well, 10 days. The method, then: A plaque reduction assay was performed in HFFs to determine the effects of MDP treatment either before or after infection on virus replication. HFFs were seeded into 12-well plates (2×10^5 cells/well) and infected with Towne HCMV at approximately 100 plaques/well. After 90 minutes, media were aspirated, and DMEM containing 0.5% carboxymethyl-cellulose (CMC), 4% fetal bovine serum (FBS), and MDP at final concentration of 10 μg/mL were added into duplicate wells. In pretreatment experiments HFFs were first treated with MDP (10 μg/mL) for 72 h after which infection with the Towne or TB40 strains was carried out at approximately 100 plaques/well. After 90 minute adsorption, media were aspirated, and DMEM containing 0.5% CMC and 4% FBS were added into duplicate wells. After incubation at 37° C. for 8 days (Towne) or 10 days (TB40) the overlay was removed and plaques were counted after crystal violet staining.
(In a plaque reduction assay, fewer plaques than in the control indicate reduced infectivity or spread.)

Series [1] concerns pp28-luciferase Towne strain. The series can be described thus: pp28-luciferase HCMV replication assay (first and second cycle). The class given is cell-based, human cytomegalovirus. The settings on record: for luciferase activity reduction, second cycle: MOI 1, second cycle 72 h. The method, then: (§1) Human Foreskin Fibroblasts (HFFs) passage 12-16 (ATCC, CRL-2088™) were grown in Dulbecco's Modified Eagle Medium (DMEM) containing 10% fetal bovine serum (FBS) (Gibco, Carlsbad, Calif.) in a 5% CO2 incubator at 37° C. The generation of NOD2-KD HFFs (HFF-shNOD2) and control cells (HFF-GIPZ) was reported. One day prior to infection or treatment, 8×10^4 cells were seeded into each well of 12-well tissue culture plates. Multiplicities of infection were specified for each experiment. The Towne HCMV strain was obtained from ATCC (VR-977). The pp28-luciferase Towne strain which expresses luciferase under the control of the pp28 late promoter has been described. Luciferase activity was measured at 72 or 96 hours post infection (hpi) using the Glomax-Multi+ Detection System (Promega, Madison, Wis.). In second cycle replication assays cell free supernatants from HFFs infected with pp28-luciferase Towne were collected 4 days post completion of first replication cycle (5-10% of total volume/well), and used for infection of fresh HFFs seeded into 12-well plates. Cell lysates were collected after 72 h for luciferase activity. Supernatants from the first cycle were also used to measure virus titer in 12-well plates and plaques were counted at day 8 post infection. A purified preparation of the pp28-luciferase Towne strain was prepared by ultracentrifugation using sucrose gradient. The HCMV TB40 strain was obtained from ATCC (VR-1578). Clinical isolates of HCMV were obtained from the microbiology laboratory at Johns Hopkins Hospital with no identifiers that could be linked to a patient. The Johns Hopkins School of Medicine Office of Human Subject Research Institutional Review Board (IRB-X) determined that the research qualified for an exemption.

The test system of a further series is IL8 mRNA. The series is described as follows: qRT-PCR of IL8 mRNA in HFFs. The class given is cell-based, Human. The method, then:
Total RNA was isolated from cells using RNAeasy Mini kit (Qiagen, Georgetown, Md.) according to manufacturer's instructions. RevertAid first strand cDNA synthesis kit (Fermentas life sciences, Cromwell Park, Md.) was used to synthesize first strand cDNA from total RNA using oligo-dT primers. Negative reverse-transcriptase (−RT) reactions were included to ensure the specificity of qRT-PCR reactions. Synthesis of first strand cDNA from mRNA template was carried out at 42° C. for 1 h. Quantitative RT-PCR was performed using specific primers and SYBR green (Fermentas life science) with two-step cycling protocol (95° C. for 15 s, 60° C. for 1 min). All reactions were performed in triplicates and GAPDH was used as internal control. The expression level of the tested genes was normalized to the expression of GAPDH.
For orientation: Quantitative PCR measures a nucleic acid by following its amplification.

Series [2] relates to pp28-luciferase Towne strain. The series is described as follows: Virus titration of first cycle supernatants by plaque assay. The conditions noted are these: MDP-pretreated cells, plaques at 8 days. The class given is cell-based, human cytomegalovirus. The method, then: as §1, with “Cell lysates were collected after 72 h for luciferase activity.” left out, “A purified preparation of the pp28-luciferase Towne strain was prepared by ultracentrifugation using sucrose gradient. The HCMV TB40 strain was obtained from ATCC (VR-1578). Clinical isolates of HCMV were obtained from the microbiology laboratory at Johns Hopkins Hospital with no identifiers that could be linked to a patient.” left out

Another series has as its system HFFs. The series is described as follows: MTT cell viability assay. The class given is cell-based, Human. The method, then:
MTT assay (Sigma-Aldrich) was performed to rule out any cytotoxicity induced by MDP treatment. Cells (HFFs and transduced GIPZ/shIFNβ-HFFs as described below) were pretreated with MDP for 96- and 72 h, respectively and 20 μl/well of MTT [3-(4, 5-Dimethyl-2-thiazolyl)-2, 5-diphenyl-2H-tetrazolim bromide, 5 mg/mL in phosphate buffered saline (PBS)] was added to each well. After shaking plates at 150 rpm for 5 minutes the plates were incubated at 37° C. for 3 hours. Conversion of yellow solution to dark blue formazan by mitochondrial dehydrogenases of living cells was quantified by measuring absorbance at 560 nm.
In general terms: Formazan colour is commonly taken as a measure of viable cells.

With `CC(=O)N[C@H]1C(O)O[C@H](CO)[C@@H](O)[C@@H]1O[C@H](C)C(=O)N[C@@H](C)C(=O)N[C@H](CCC(=O)O)C(N)=O` (mixture of isomers) [MDP, Muramyl dipeptide], the plaque number reduction with HCMV TB40 is given as approximately 70%. The “pp28 activity reduction, first cycle” value in series [1] (MDP pretreatment 10 μg/mL 72 h, MOI 0.1, 96 hpi) was 80%. In addition, the “pp28 expression (luciferase activity), first cycle” value in series [1] (MDP pretreatment 18 or 72 h, MOI 1, 96 hpi) is recorded as “modest reduction”. The entries for the “luciferase activity reduction, second cycle” value in series [1] (MDP pretreatment 18 h) and in series [1] (MDP pretreatment 72 h) were “approximately 45%” and approximately 75%, respectively. In addition, the “increase in IL8 mRNA” value in the series with IL8 mRNA (HCMV-infected, MDP treatment, 4 hpi) worked out at 2 fold. For the same molecule, the “further increase of IL8 mRNA” value in the series on IL8 mRNA (MDP after infection compared to MDP or HCMV alone, irrespective of MOI) is 6-7 fold. The IL8 expression induction in the series on IL8 mRNA (MDP alone, non-infected, 36 h) is reported as 3 fold. In addition, the IL8 expression result in the series on IL8 mRNA (MDP pretreatment 72 h, non-infected or HCMV-infected) is reported as “modestly induced”. Besides, the “reduction in virus titer” value in series [2] was determined as 6 fold. For the same molecule, the “cellular toxicity (MTT)” value in the series on HFFs (HFFs treated 96 h) is on record as “no toxicity at any of the concentrations used”. The “toxicity / cell growth (MTT)” value with HFFs (control GIPZ or shIFN-β KD HFFs, MDP 10 μg/mL 72 h) is reported as “No toxicity or difference in cell growth”.
